Measured values taken from patent US10307413B2, “Tetrahydro- and dihydro-isoquinoline PRMT5 inhibitors and uses thereof” (Epizyme, Inc., priority 2013, dated 2019).

Legend:
[1] = system: symmetric di-methyl arginine in Z-138 cells; experiment: Z-138 Methylation Assay (In Cell Western for symmetric di-methyl arginine and DNA content); format: cell-based; conditions: Homo sapiens, read-out: ICW EC50
Procedure, shortened: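 In-cell western: symmetric di-methyl arginine signal ratioed to DRAQ5 DNA content after 96 h compound exposure of Z-138 cells seeded at 50,000 cells/mL.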

Z-138 cell line = experiment: Z-138 Proliferation Assay (Cell Titer Glo, 5 days); format: cell-based; conditions: Homo sapiens, 120 h; Z-138 cells, 5 days; read-out: Proliferation EC50
Procedure, shortened: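 Viability via CellTiter-Glo luminescence (ATP) after 5-day incubation at 37 °C, 5% CO2. Compounds tested in triplicate, nine 3-fold steps, highest final concentration 20 μM in 0.2% DMSO; 50% inhibitory concentration by 4-parameter fit of normalized curves.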

Structure (SMILES)	EC50 [1] [nM]	EC50 (Z-138 cell line) [nM]
O=C(NC[C@H](O)CN1CCc2ccccc2C1)c1cccc2[nH]cnc12 [Compound 241]	101 to 1000	1000 to 10000
O=C(NCC(O)CN1CCc2ccccc2C1)c1ccn[nH]1 (stereo not shown) [Compound 148]	1000 to 10000	> 20000
O=C(NC[C@H](O)CN1CCc2ccccc2C1)c1cc2cccc(Cl)c2[nH]1 [Compound 276]	101 to 1000	1000 to 10000
O=C(NC[C@H](O)CN1CCc2ccccc2C1)c1cncc(NC2CCNC2)c1 (stereo partly shown) [Compound 259]	101 to 1000	> 20000
CS(=O)(=O)Nc1cccc(C(=O)NCC(O)CN2CCc3ccccc3C2)c1 (stereo not shown) [Compound 24]	101 to 1000	1000 to 10000
O=C(NCC(O)CN1CCc2ccccc2C1)c1cccc(CNC2CCOCC2)c1 (stereo not shown) [Compound 15, N-(3-(3,4-dihydroisoquinolin-2(1H)-yl)-2-hydroxypropyl)-3-(((tetrahydro-2H-pyran-4-yl)amino)methyl)benzamide]	101 to 1000	10000 to 50000
Cc1ccc(NC2CCOCC2)cc1C(=O)NCC(O)CN1CCc2ccccc2C1 (stereo not shown) [Compound 95]	101 to 1000	1000 to 10000
Cc1ccc2cc(C(=O)NC[C@@H](O)CN3CCc4ccccc4C3)ccc2n1 [Compound 219, (R)—N-(3-(3,4-dihydroisoquinolin-2(1H)-yl)-2-hydroxypropyl)-2-methylquinoline-6-carboxamide]	101 to 1000	10000 to 50000
O=C(NC[C@H](O)CN1CCc2ccccc2C1)c1cccc2c1OCCO2 [Compound 249]	101 to 1000	10000 to 50000
COc1cc(CN2CCN(C)CC2)cc(C(=O)NCC(O)CN2CCc3ccccc3C2)c1 (stereo not shown) [Compound 160]	101 to 1000	10000 to 50000
COc1ccc2oc(C(=O)NC[C@H](O)CN3CCc4ccccc4C3)cc2c1 [Compound 250]	< 100	1000 to 10000
O=C(NC[C@H](O)CN1CCc2ccccc2C1)c1cncc(OC2CCNCC2)c1 [Compound 260]	101 to 1000	> 20000
CN1CCOC(CNc2cc(C(=O)NC[C@H](O)CN3CCc4ccccc4C3)ccn2)C1 (stereo partly shown) [Compound 265]	101 to 1000	1000 to 10000
CS(=O)(=O)N1CCC(Oc2cncc(C(=O)NC[C@H](O)CN3CCc4ccccc4C3)c2)CC1 [Compound 290]	101 to 1000	10000 to 50000
NC(=O)CNCCOc1cccc(C(=O)NCC(O)CN2CCc3ccccc3C2)c1 (stereo not shown) [Compound 222]	101 to 1000	> 20000
O=C(NCC(O)CN1CCc2ccccc2C1)c1cn[nH]c1-c1ccccc1 (stereo not shown) [Compound 112]	1000 to 10000	> 20000
O=C(O)CN1CCN(Cc2cccc(C(=O)NCC(O)CN3CCc4ccccc4C3)c2)CC1 (stereo not shown) [Compound 157]	1000 to 10000	> 20000
CNC(=O)CCCN1CCN(Cc2cccc(C(=O)NCC(O)CN3CCc4ccccc4C3)c2)CC1 (stereo not shown) [Compound 175]	101 to 1000	1000 to 10000
O=C(NC[C@H](O)CN1CCc2ccccc2C1)c1nc2cc(Br)ccc2[nH]1 [Compound 319]	< 100	1000 to 10000

Structure (SMILES)	EC50 [1] [nM]	EC50 (Z-138 cell line) [nM]
CC(=O)N1CCC(Nc2cc(C(=O)NC[C@H](O)CN3CCc4ccccc4C3)ncn2)CC1 [Compound 208, (S)-6-((1-acetylpiperidin-4-yl)amino)-N-(3-(3,4-dihydroisoquinolin-2(1H)-yl)-2-hydroxypropyl)pyrimidine-4-carboxamide]	< 100	< 100
O=C(NCC(O)CN1CCc2ccccc2C1)c1ccc(OC2CCNCC2)cc1 (stereo not shown) [Compound 104]	< 100	1000 to 10000
O=C(NC[C@H](O)CN1CCc2ccccc2C1)c1ccc2c(c1O)NCCC2 [Compound 328]	> 1000	> 20000
C[C@H]1COCCC1Nc1cccc(C(=O)NC[C@H](O)CN2CCc3ccccc3C2)c1 (stereo partly shown) [Compound 213]	< 100	101 to 1000
O=C(NCC(O)CN1CCc2ccccc2C1)c1cccc(CN2CCNCC2)c1 (stereo not shown) [Compound 29]	101 to 1000	1000 to 10000
CC1CC(Nc2cccc(C(=O)NC[C@@H](O)CN3CCc4ccccc4C3)c2)CC(C)O1 (stereo partly shown) [Compound 153]	< 100	101 to 1000
CS(=O)(=O)N1CCC(Nc2cccc(C(=O)NCC(O)CN3CCc4ccccc4C3)c2)CC1 (stereo not shown) [Compound 125]	< 100	101 to 1000
Cn1nccc1Nc1cc(C(=O)NC[C@H](O)CN2CCc3ccccc3C2)ccn1 [Compound 325]	< 100	101 to 1000
O=C(NC[C@H](O)CN1CCc2ccccc2C1)c1ccc2c(c1)CCCC2 [Compound 247]	101 to 1000	1000 to 10000
O=C(NC[C@H](O)CN1CCc2ccccc2C1)c1csc2ccccc12 [Compound 248]	101 to 1000	1000 to 10000
O=C(NC[C@H](O)CN1CCc2ccccc2C1)c1ccc(OC2CCN(Cc3ccncc3)CC2)cc1 [Compound 331]	< 100	< 100
CN1CCC(Oc2ccc(C(=O)NCC(O)CN3CCc4ccccc4C3)cc2)C1 (stereo not shown) [Compound 177]	< 100	1000 to 10000
CN1CCC(Oc2ccc(C(=O)NCC(O)CN3CCc4ccccc4C3)cc2)CC1 (stereo not shown) [Compound 105]	< 100	1000 to 10000
O=C(NCC(O)CN1CCc2ccccc2C1)c1cc(NC2CCOCC2)n[nH]1 (stereo not shown) [Compound 169]	101 to 1000	1000 to 10000
CN1CCN(Cc2cccc(C(=O)NCC(O)CN3CCc4ccccc4C3)c2)CC1CO (stereo not shown) [Compound 253]	101 to 1000	1000 to 10000
O=C(NCC(O)CN1CCc2ccccc2C1)c1ccc(-c2ccccn2)cc1 (stereo not shown) [Compound 13, N-(3-(3,4-dihydroisoquinolin-2(1H)-yl)-2-hydroxypropyl)-4-(pyridin-2-yl)benzamide]	< 100	101 to 1000
COc1ccc(NC2CCOCC2)cc1C(=O)NCC(O)CN1CCc2ccccc2C1 (stereo not shown) [Compound 77]	101 to 1000	1000 to 10000
CN1CCC(c2cccc(C(=O)NCC(O)CN3CCc4ccccc4C3)c2)C1 (stereo not shown) [Compound 38, N-(3-(3,4-dihydroisoquinolin-2(1H)-yl)-2-hydroxypropyl)-3-(1-methylpyrrolidin-3-yl)benzamide]	101 to 1000	10000 to 50000

The next lines start with results.

EC50 [1] [nM]	Structure (SMILES)	EC50 (Z-138 cell line) [nM]
< 100	O=C(NC[C@H](O)CN1CCc2ccccc2C1)c1ccnc(NC2CCN(CC(F)(F)F)C2)c1 (stereo partly shown) [Compound 226]	101 to 1000
< 100	CC(=O)N1CCC(Nc2cc(C(=O)NC[C@H](O)CN3CCc4ccccc4C3)ncn2)C1 (stereo partly shown) [Compound 210]	101 to 1000
< 100	CN1CCC(CNc2cc(C(=O)NC[C@H](O)CN3CCc4ccccc4C3)ccn2)CC1 [Compound 292]	101 to 1000
< 100	O=C(NC[C@H](O)CN1CCc2ccccc2C1)c1ccnc(NCc2ccccn2)c1 [Compound 191]	101 to 1000
< 100	O=C(NC[C@H](O)CN1CCc2ccccc2C1)c1ccnc(NC2CCCCC2)c1 [Compound 335]	< 100
< 100	CC(=O)N1CCC(Nc2ccc(C(=O)NCC(O)CN3CCc4ccccc4C3)cc2)CC1 (stereo not shown) [Compound 127]	1000 to 10000
< 100	O=C(NC[C@H](O)CN1CCc2ccccc2C1)c1cc2ccccc2[nH]1 [Compound 269]	1000 to 10000
< 100	Cc1c(NC2CCOCC2)cccc1C(=O)NCC(O)CN1CCc2ccccc2C1 (stereo not shown) [Compound 40, N-(3-(3,4-dihydroisoquinolin-2(1H)-yl)-2-hydroxypropyl)-2-methyl-3-((tetrahydro-2H-pyran-4-yl)amino)benzamide]	1000 to 10000
< 100	O=C(NCC(O)CN1CCc2ccccc2C1)c1ccc(OC2CCN(CC(F)(F)F)C2)cc1 (stereo not shown) [Compound 199]	1000 to 10000
< 100	O=C(NC[C@H](O)CN1CCc2ccccc2C1)c1cncc(NC2CCOC2)c1 (stereo partly shown) [Compound 211]	< 100
< 100	O=C(NCC(O)CN1CCc2ccccc2C1)c1cccc(NC2CCOCC2)c1 (stereo not shown) [Compound 16, N-(3-(3,4-dihydroisoquinolin-2(1H)-yl)-2-hydroxypropyl)-3-((tetrahydro-2H-pyran-4-yl)amino)benzamide]	101 to 1000
< 100	CC(C)(C)C(=O)N1CCC(Oc2ccc(C(=O)NC[C@H](O)CN3CCc4ccccc4C3)cc2)CC1 [Compound 322]	101 to 1000
< 100	O=C(NC[C@H](O)CN1CCc2ccccc2C1)c1ccnc(NC2CCC2)c1 [Compound 188]	< 100
< 100	O=C(NCC(O)CN1CCc2ccccc2C1)c1cccc(CC2CCOCC2)c1 (stereo not shown) [Compound 59]	101 to 1000
< 100	O=C(NCC(O)CN1CCc2ccccc2C1)c1cccc(NC2CCN(CC(F)(F)F)CC2)c1 (stereo not shown) [Compound 126]	1000 to 10000
< 100	CN1CCC(Nc2cc(C(=O)NC[C@H](O)CN3CCc4ccccc4C3)ccn2)CC1 [Compound 223]	1000 to 10000
< 100	CS(=O)(=O)N1CC(Nc2cc(C(=O)NC[C@H](O)CN3CCc4ccccc4C3)ccn2)C1 [Compound 278]	101 to 1000
< 100	O=C(NCC(O)CN1CCc2ccccc2C1)c1ccc(CN2CCNCC2)cc1 (stereo not shown) [Compound 143]	1000 to 10000
< 100	O=C(NC[C@H](O)CN1CCc2ccccc2C1)c1cccc(OC2CCOCC2)c1 [Compound 82]	101 to 1000
< 100	O=C(NC[C@H](O)CN1CCc2ccccc2C1)c1cc(NC2CCOC2)ncn1 (stereo partly shown) [Compound 230]	101 to 1000
< 100	O=C(NCC(O)CN1CCc2ccccc2C1)c1ccc(OC2CCNC2)cc1 (stereo not shown) [Compound 176]	1000 to 10000
< 100	CC(=O)N1CCC(Nc2cccc(C(=O)NCC(O)CN3CCc4ccccc4C3)c2)C1 (stereo not shown) [Compound 121]	101 to 1000
